Test results published in US20160029683A1, “LOW CALORIE INFANT FORMULA CONTAINING BETA-HYDROXY-BETA-METHYLBUTYRIC ACID” (ABBOTT LABORATORIES, priority 2013, published 2016).
Entries after “also recorded” stand apart in the source; their conditions may differ.

Columns and labels:
[1] = tested on: mTORC1; test: mTORC1 signaling to translation (overall analysis); format: in vivo, neonatal pigs; details: overall analysis of the piglet data
Description: (§1) Overnight fasted neonatal pigs (5-7 days old) were infused with HMB with 0, 20, 100, or 400 μmol·kg^−1·hr^−1 HMB. Blood plasma concentrations of the following circulating substrates were measured. HMB was measured using gas chromatography per the method set forth in: Nissen, Steven (1990). Analysis of β-Hydroxy-β-methyl Butyrate in Plasma by Gas […] Chromatography and Mass Spectrometry Analytical Biochemistry 188, 17-19.
(§2) At the end of the infusion, the piglets were sacrificed and the fractional protein synthesis rates were measured by measuring ^3H incorporation into protein fractions after a flooding dose of L[4-^3H]phenylalanine using the method set forth in Garlick P. J. (1980). A rapid and convenient technique for measuring the rate of protein synthesis in tissues by injection of [3H]Phenylalanine Biochem J 192:719-723. Activation of translation initiation was measured in the stomach, duodenum, jejunum, colon, pancreas, kidney, brain and skin. The abundance of intracellular proteins involved in signaling of protein synthesis and in processes related to protein degradation was measured in tissue homogenates by immunoblotting using commercially available antibodies.

[2] = tested on: MURF1; test: Expression of MURF1 in muscles; format: in vivo, neonatal pigs
Description: as §1, §2
MURF1 is a muscle-specific ubiquitin ligase.

[3] = tested on: protein degradation in the muscles of adults; details: literature (Smith 2004, 2005); cited from earlier work
[4] = tested on: protein synthesis in longissimus dorsi, gastrocnemius, soleus, diaphragm, duodenum and brain; test: Comparison of protein synthesis rates after infusion of HMB or leucine; format: in vivo, neonatal pigs; details: HMB 20, 100 or 400 μmol kg^−1 h^−1 vs leucine 400 μmol·kg^−1·hour^−1
Description: as §1, §2

[5] = tested on: elF4E·elF4G complex; test: Formation of the active elF4E·elF4G complex in muscles; format: in vivo, neonatal pigs
[6] = tested on: protein synthesis in the spleen; test: Fractional rate of protein synthesis in the spleen of HMB-infused piglets; format: in vivo, neonatal pigs; details: infusion rate of 20 μmol·kg^−1·hour^−1 HMB for one hour
Description: as §1, §2

[7] = tested on: elF2α; test: Phosphorylation of elF2α in muscles; format: in vivo, neonatal pigs
Description: as §1, §2
The formation of phosphorylation of elF2α regulates tRNA-ribosome binding.

[8] = tested on: LC3-II/LC3-I; test: Ratio of LC3-II/LC3-I in muscles; format: in vivo, neonatal pigs
Description: as §1, §2
The ratio of LC3-II/LC3-I is an indicator of autophagy/lysosomal protein degradation.

[9] = tested on: protein synthesis in skeletal muscles; test: Fractional rate of protein synthesis in skeletal muscles of HMB-infused piglets; format: in vivo, neonatal pigs
Description: as §1, §2

[10] = tested on: S6K1; test: Phosphorylation of S6K1 in muscles (immunoblotting); format: in vivo, neonatal pigs
Description: as §1, §2
The phosphorylation of S6K1 is an indicator of mTORC1 signaling to translation.

[11] = tested on: amino acid transporters; test: Level of amino acid transporters; format: in vivo, neonatal pigs; details: overall analysis of the piglet data
Description: as §2

[12] = tested on: 4EBP1; test: Phosphorylation of 4EBP1 in muscles (immunoblotting); format: in vivo, neonatal pigs
Description: as §1, §2
The phosphorylation of 4EBP1 is an indicator of mTORC1 signaling to translation.

[13] = tested on: markers of protein degradation; test: Markers of protein degradation (overall analysis); format: in vivo, neonatal pigs; details: overall analysis of the piglet data
Description: as §1, §2

[14] = Blood plasma concentration of HMB in piglets infused with HMB; format: in vivo, neonatal pigs; details: pig, intravenous
Description: as §1

[15] = tested on: eEF2; test: Phosphorylation of eEF2 in muscles; format: in vivo, neonatal pigs
Description: as §1, §2
The formation of phosphorylation of eEF2 regulates […].

[16] = tested on: protein synthesis in the lung; test: Fractional rate of protein synthesis in the lung of HMB-infused piglets; format: in vivo, neonatal pigs; details: infusion rate of 20 μmol·kg^−1·hour^−1 HMB for one hour
Description: as §1, §2

[17] = tested on: Atrogin-1; test: Expression of Atrogin-1 in muscles; format: in vivo, neonatal pigs
Description: as §1, §2
Atrogin-1 is a muscle-specific ubiquitin ligase.

[18] = 20 μmol·kg^−1·hour^−1 HMB for one hour
[19] = 100 μmol·kg^−1·hour^−1 HMB for one hour
[20] = 20 μmol·kg^−1·hour^−1 HMB for one hour, diaphragm
[21] = 20 μmol·kg^−1·hour^−1 HMB for one hour, longissimus dorsi, gastrocnemius and soleus
[22] = 100 μmol·kg^−1·hour^−1 HMB for one hour, diaphragm
[23] = 100 μmol·kg^−1·hour^−1 HMB for one hour, longissimus dorsi, gastrocnemius and soleus

concentration at 1 h ([14]; piglets infused with 20 μmol·kg^−1·hr^−1 HMB): 90 µM
concentration at 1 h ([14]; piglets infused with 100 μmol·kg^−1·hr^−1 HMB): 316 µM
concentration at 1 h ([14]; piglets infused with 400 μmol·kg^−1·hr^−1 HMB): 1400 µM
Structure (SMILES): CC(C)(O)CC(=O)O [HMB, beta-hydroxy-beta-methylbutyric acid]
activation of protein synthesis via mTORC1 [1]: activated protein synthesis by inducing mTORC1
expression of MURF1 [2, 18]: did not affect
expression of MURF1 [2, 19]: did not affect
protein degradation in the muscles of adults [3]: attenuates protein degradation
effectiveness in increasing protein synthesis compared with leucine [4]: equal to or more effective; also recorded: as effective as leucine
formation of active eIF4E·eIF4G complex [5, 20]: increased
formation of active eIF4E·eIF4G complex [5, 21]: increased
formation of active eIF4E·eIF4G complex [5, 22]: not
formation of active eIF4E·eIF4G complex [5, 23]: increased
protein synthesis in the spleen [6]: increase
phosphorylation of elF2α [7, 18]: did not affect
phosphorylation of elF2α [7, 19]: did not affect
ratio of LC3-II/LC3-I [8, 18]: did not affect
ratio of LC3-II/LC3-I [8, 19]: did not affect
fractional rates of protein synthesis in the skeletal muscles ([9]; 20 μmol·kg^−1·hour^−1 HMB, longissimus dorsi, gastrocnemius, soleus and diaphragm, P<0.05): increased
protein synthesis in the gastrocnemius, soleus and diaphragm muscles ([9]; 100 μmol·kg^−1·hour^−1 HMB): not significantly
protein synthesis in the longissimus dorsi muscle ([9]; 100 μmol·kg^−1·hour^−1 HMB, P<0.05): increased
protein synthesis in the skeletal muscles ([9]; 400 μmol·kg^−1·hour^−1 HMB): no significant effect
impact on protein synthesis in 4 muscles (fast twitch, slow twitch, voluntary and involuntary) ([9]; highest dose, 400 μmol kg^−1 h^−1, compared with other doses): least impact
impact on protein synthesis in 4 muscles (fast twitch, slow twitch, voluntary and involuntary) ([9]; lowest dose of HMB 20 μmol kg^−1 h^−1, compared with other doses): greatest impact
phosphorylation of S6K1 [10, 20]: increased
phosphorylation of S6K1 [10, 21]: increased
phosphorylation of S6K1 [10, 23]: increased
level of amino acid transporters [11]: did not affect
phosphorylation of 4EBP1 [12, 20]: increased
phosphorylation of 4EBP1 [12, 21]: increased
phosphorylation of 4EBP1 [12, 22]: not
phosphorylation of 4EBP1 [12, 23]: increased
markers of protein degradation [13]: did not affect
phosphorylation of eEF2 [15, 18]: did not affect
phosphorylation of eEF2 [15, 19]: did not affect
protein synthesis in the lung [16]: increase
expression of Atrogin-1 [17, 18]: did not affect
expression of Atrogin-1 [17, 19]: did not affect
